For 42 compounds, IC50 and EC50 results are on record in US8217035B2, “Pyrimidine derivatives used as PI-3-kinase inhibitors” (Novartis AG, priority 2006, dated 2012).

Molecules are shown by their SMILES. pEC50, pIC50: −log10 of the molar value.

The target in one assay is PI3 kinase alpha (Homo sapiens, UniProt P42336). The experiment in a line: PI3K ATP depletion assay (Biological Method 1, Assay 3; KinaseGlo luminescence). The assay is classed as biochemical. The conditions noted are these: ATP depletion assay, Biological Method 1; read-out: PI3 Kinase Alpha, IC50. The essentials:
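Compound in DMSO was mixed with 10 nM PI3 kinase and 5 μg/mL phosphatidylinositol, and the reaction was started with 2 μM ATP. It ran to about 50% ATP depletion and was stopped with KinaseGlo.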
In general terms: Kinase-Glo reads ATP consumption through a luciferase reaction.

Assay [1] concerns A2780 ovarian cancer cells. The experiment in a line: Cellular proliferation in A2780 cells, Cell Titer Glo (Biological Method 4). It is filed as cell-based. Particulars: Homo sapiens; ovarian cancer cell line A2780, Biological Method 4. The procedure:
In addition, many of the compounds of Table 1 were tested to determine their inhibitory activity in a cellular proliferation assay according to Biological Method 4.
The ability of the compounds of the invention to inhibit cellular proliferation were determined by using Cell Titer Glo, a commercially available assay from Promega Corporation. A2780 ovarian cancer cells were seeded in TC treated 96-well plates at a density of 1,000 per well in DMEM, 10% FBS, 1% Sodium Pyruvate, and 1% Penicillin Streptomycin for a minimum of 2 hrs prior to addition of compound. For each concentration of test compound, 2 μl (500×) aliquots of compound or 100% DMSO diluted in 500 μl of culture medium for 2× concentration then diluted 1× on the Cells. Cells were incubated for 72 hrs at 37° C., 5% CO2. After the 72 hour incubation, Cell Titer Glo reagent is added to determine number of viable cells remaining after exposure to the compound, and the EC50 value was calculated. The assay was performed according to the manufacturer's instruction (Promega Corporation, Madison, Wis. USA). Each experimental condition was performed in duplicate.
In general terms: Cellular ATP, detected with luciferase, serves as a proxy for viable cell number.

Sequence of PI3 kinase alpha (P42336 whole entry): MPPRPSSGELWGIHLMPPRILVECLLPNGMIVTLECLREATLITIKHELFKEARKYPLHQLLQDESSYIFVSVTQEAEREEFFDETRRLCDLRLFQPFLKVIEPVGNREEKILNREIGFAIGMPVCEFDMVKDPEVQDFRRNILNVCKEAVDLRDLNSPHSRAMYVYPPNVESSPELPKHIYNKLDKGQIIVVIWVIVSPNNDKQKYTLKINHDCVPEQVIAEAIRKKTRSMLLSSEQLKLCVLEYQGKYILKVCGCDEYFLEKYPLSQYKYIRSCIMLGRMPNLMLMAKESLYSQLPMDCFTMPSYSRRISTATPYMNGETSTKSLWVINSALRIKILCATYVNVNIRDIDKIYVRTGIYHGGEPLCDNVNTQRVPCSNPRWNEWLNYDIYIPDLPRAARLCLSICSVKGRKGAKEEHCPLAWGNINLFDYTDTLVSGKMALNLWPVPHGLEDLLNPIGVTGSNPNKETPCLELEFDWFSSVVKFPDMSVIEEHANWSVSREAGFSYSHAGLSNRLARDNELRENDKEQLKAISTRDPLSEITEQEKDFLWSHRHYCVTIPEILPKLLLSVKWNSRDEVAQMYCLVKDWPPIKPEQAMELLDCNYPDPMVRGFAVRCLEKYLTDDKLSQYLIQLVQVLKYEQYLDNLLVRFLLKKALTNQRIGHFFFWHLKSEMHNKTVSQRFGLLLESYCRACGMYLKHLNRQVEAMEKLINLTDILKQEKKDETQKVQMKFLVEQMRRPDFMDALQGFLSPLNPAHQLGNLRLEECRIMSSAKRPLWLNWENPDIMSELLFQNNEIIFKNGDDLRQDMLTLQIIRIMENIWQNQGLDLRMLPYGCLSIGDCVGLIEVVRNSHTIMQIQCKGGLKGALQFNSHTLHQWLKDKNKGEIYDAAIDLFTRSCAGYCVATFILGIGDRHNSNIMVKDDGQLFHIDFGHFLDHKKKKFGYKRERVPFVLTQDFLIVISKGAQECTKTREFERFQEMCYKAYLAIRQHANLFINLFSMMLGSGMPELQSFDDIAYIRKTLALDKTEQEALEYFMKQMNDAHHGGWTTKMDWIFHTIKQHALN
Sequence of PI3 kinase alpha (P27986 whole entry partner): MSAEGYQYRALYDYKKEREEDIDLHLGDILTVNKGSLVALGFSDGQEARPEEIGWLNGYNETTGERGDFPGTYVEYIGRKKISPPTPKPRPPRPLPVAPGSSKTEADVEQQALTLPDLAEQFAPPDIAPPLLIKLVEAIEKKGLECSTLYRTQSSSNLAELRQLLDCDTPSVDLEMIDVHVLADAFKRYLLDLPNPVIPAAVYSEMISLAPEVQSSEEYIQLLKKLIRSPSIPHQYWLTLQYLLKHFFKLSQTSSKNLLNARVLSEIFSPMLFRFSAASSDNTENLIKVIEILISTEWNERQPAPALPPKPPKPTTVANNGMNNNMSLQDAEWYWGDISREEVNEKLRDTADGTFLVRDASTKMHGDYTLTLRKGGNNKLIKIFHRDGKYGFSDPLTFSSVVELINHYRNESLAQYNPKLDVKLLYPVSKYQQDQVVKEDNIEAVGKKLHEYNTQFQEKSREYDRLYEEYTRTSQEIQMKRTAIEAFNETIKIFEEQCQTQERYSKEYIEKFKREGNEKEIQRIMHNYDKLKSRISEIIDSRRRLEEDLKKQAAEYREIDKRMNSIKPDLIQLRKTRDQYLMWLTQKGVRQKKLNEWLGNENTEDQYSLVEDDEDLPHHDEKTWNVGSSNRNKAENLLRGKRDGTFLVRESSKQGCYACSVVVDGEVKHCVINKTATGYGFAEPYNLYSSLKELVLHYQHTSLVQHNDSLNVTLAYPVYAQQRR

Usually pIC50 stands for the IC50 on a negative log10 scale, so that one unit is a factor of ten. The term pEC50 denotes the EC50 on a negative log10 scale, so that one unit is a factor of ten. On to `Nc1ccc(-c2cc(Nc3ccc(OC(CO)CO)nc3)nc(N3CCOCC3)n2)cn1` [Compound 271], for which the pIC50 on PI3 kinase alpha was more than 6.00. Also, in assay [1], the pEC50 was more than 4.60.

In the case of `CN1CCN(Cc2cncc(-c3cc(-c4ccc(N)nc4)nc(N4CCOCC4)n3)c2)CC1` [Compound 273], the pIC50 on PI3 kinase alpha is more than 6.00. The same compound had a pEC50 in assay [1] of more than 5.00.

On to `Nc1ncc(-c2cc(-c3cncc(O)c3)nc(N3CCOCC3)n2)cn1` [Compound 274], for which the pIC50 at PI3 kinase alpha is more than 6.00. In assay [1], the pEC50 is more than 6.00.

With `COc1cncc(-c2cc(-c3ccc(N)nc3)nc(N3CCOCC3)n2)c1` [Compound 275], the pIC50 at PI3 kinase alpha was more than 6.00. Further, the pEC50 in assay [1] was more than 6.00.

As to `CN1CCC(Oc2ccc(Nc3cc(-c4ccc(N)nc4)nc(N4CCOCC4)n3)cn2)CC1` [Compound 276], on PI3 kinase alpha, the pIC50 was more than 6.00. Further, in assay [1], the pEC50 was more than 5.00.

As for `CN1CCC(Oc2ccc(-c3cc(-c4cnc(N)nc4)nc(N4CCOCC4)n3)cn2)CC1` [Compound 277], the pIC50 on PI3 kinase alpha was more than 6.00. For the same compound, in assay [1], the pEC50 was more than 5.00.

In the case of `Nc1ncc(-c2cc(-c3ccc(F)nc3)nc(N3CCOCC3)n2)cn1` [Compound 278], the pIC50 at PI3 kinase alpha is more than 6.00. The pEC50 in assay [1] was more than 5.00.

As to `Nc1ncc(-c2cc(-c3cnc(N)nc3)nc(N3CCOCC3)n2)cn1` [Compound 279], at PI3 kinase alpha, the pIC50 is more than 6.00. In assay [1], this compound gave a pEC50 of more than 5.00.

For the compound `Nc1ncc(-c2cc(-c3cccc4ncccc34)nc(N3CCOCC3)n2)cn1` [Compound 280], at PI3 kinase alpha, the pIC50 is more than 6.00. Also, in assay [1], the pEC50 is more than 5.00.

Take `Nc1cc(C(F)(F)F)c(-c2cc(Nc3ccc(-c4nn[nH]n4)cc3)nc(N3CCOCC3)n2)cn1` [Compound 281]: on PI3 kinase alpha, the pIC50 is more than 6.00. Besides, in assay [1], the pEC50 is more than 4.60.

As to `Nc1cc(C(F)(F)F)c(-c2cc(Nc3ccc(-c4nn[nH]n4)nc3)nc(N3CCOCC3)n2)cn1` [Compound 282], the pIC50 at PI3 kinase alpha was more than 6.00. In assay [1], this compound showed a pEC50 of more than 4.60.

Take `N#Cc1ccc(Nc2cc(-c3cnc(N)cc3C(F)(F)F)nc(N3CCOCC3)n2)cc1` [Compound 283]: the pIC50 at PI3 kinase alpha is more than 6.00. The compound further had a pEC50 in assay [1] of more than 5.00.

Consider `N#Cc1ccc(Nc2cc(-c3cnc(N)cc3C(F)(F)F)nc(N3CCOCC3)n2)cn1` [Compound 284], for which the pIC50 at PI3 kinase alpha is more than 6.00. Also, the pEC50 in assay [1] was more than 5.00.

As for `COc1nc2ccccc2cc1Nc1cc(-c2ccc(N)nc2)nc(N2CCOCC2)n1` [Compound 287], the pIC50 on PI3 kinase alpha was more than 6.00. Besides, the pEC50 in assay [1] was more than 5.00.

Turning to `CN1CCC(C(=O)Nc2cc(-c3cnc(N)nc3)nc(N3CCOCC3)n2)CC1` [Compound 289], the pIC50 at PI3 kinase alpha is more than 6.00. For the same compound, the pEC50 in assay [1] was more than 5.00.

Take `Nc1ncc(-c2cc(NC(=O)[C@@H]3CCCO3)nc(N3CCOCC3)n2)cn1` [Compound 290]: the pIC50 at PI3 kinase alpha is more than 6.00. In assay [1], this compound showed a pEC50 of more than 5.00.

For `Nc1ncc(-c2cc(NC(=O)Cc3cccnc3)nc(N3CCOCC3)n2)cn1` [Compound 291], the pIC50 at PI3 kinase alpha was more than 6.00. In addition, in assay [1], the pEC50 is more than 4.60.

Regarding `Nc1ccc(-c2cc(Sc3ccncc3)nc(N3CCOCC3)n2)cn1` [Compound 294], the pIC50 at PI3 kinase alpha is more than 6.00. In addition, the pEC50 in assay [1] is more than 5.00.

Regarding `Nc1ccc(-c2cc(Sc3ccccn3)nc(N3CCOCC3)n2)cn1` [Compound 295], the pIC50 on PI3 kinase alpha is more than 6.00. The compound also had a pEC50 in assay [1] of more than 5.00.

For the compound `Nc1ccc(-c2cc(Nc3ccc(N4CCNCC4)nc3)nc(N3CCOCC3)n2)cn1` [Compound 299], on PI3 kinase alpha, the pIC50 was more than 6.00. In assay [1], this compound had a pEC50 of more than 5.00.

On to `CN1CCN(c2ccc(Nc3cc(-c4ccc(N)nc4)nc(N4CCOCC4)n3)cn2)CC1` [Compound 300], for which the pIC50 at PI3 kinase alpha was more than 6.00. The compound further had a pEC50 in assay [1] of more than 5.00.

With `Nc1cc(-c2cnc(N)nc2)nc(N2CCOCC2)n1` [Compound 301], the pIC50 on PI3 kinase alpha was more than 6.00. In addition, in assay [1], the pEC50 is more than 4.60.

`COc1ccc(CCNc2cc(-c3ccc(N)nc3)nc(N3CCOCC3)n2)cc1` [Compound 302]: the pIC50 on PI3 kinase alpha was more than 5.00. The same compound had a pEC50 in assay [1] of more than 4.60.

As to `COc1cccc(CCNc2cc(-c3ccc(N)nc3)nc(N3CCOCC3)n2)c1` [Compound 303], at PI3 kinase alpha, the pIC50 was more than 6.00. Besides, the pEC50 in assay [1] was more than 5.00.

`COc1ccccc1CCNc1cc(-c2ccc(N)nc2)nc(N2CCOCC2)n1` [Compound 304]: the pIC50 at PI3 kinase alpha was more than 6.00. This compound gave a pEC50 in assay [1] of more than 4.60.

For the compound `Nc1ccc(-c2cc(Nc3ccc(F)cc3)nc(N3CCOCC3)n2)cn1` [Compound 305], the pIC50 on PI3 kinase alpha is more than 6.00. Also, the pEC50 in assay [1] was more than 5.00.

For `COc1ccccc1Nc1cc(-c2cnc(N)nc2)nc(N2CCOCC2)n1` [Compound 306], the pIC50 on PI3 kinase alpha was more than 6.00. This compound also showed a negative logarithm of the EC50 (pEC50) in assay [1] of more than 5.00.

For the compound `N#Cc1cccc(Nc2cc(-c3cnc(N)nc3)nc(N3CCOCC3)n2)c1` [Compound 307], on PI3 kinase alpha, the pIC50 is more than 6.00. The compound further showed a pEC50 in assay [1] of more than 5.00.

Regarding `COc1cccc(Nc2cc(-c3cnc(N)nc3)nc(N3CCOCC3)n2)c1` [Compound 308], the pIC50 at PI3 kinase alpha is more than 6.00. The compound also showed a pEC50 in assay [1] of more than 5.00.

Regarding `COc1cc2cc(Nc3cc(-c4ccc(N)nc4)nc(N4CCOCC4)n3)cnc2cc1OC` [Compound 311], the pIC50 on PI3 kinase alpha was more than 6.00. The compound further had a pEC50 in assay [1] of more than 6.00.

Regarding `Nc1cc(C(F)(F)F)c(-c2nc(N3CCOCC3)nc(N3CCOCC3)c2F)cn1` [Compound 313], on PI3 kinase alpha, the pIC50 was more than 6.00. This compound also had a pEC50 in assay [1] of more than 4.60.

For `Nc1cc(C(F)(F)F)c(-c2cc(Nc3cccc(CN4CCOCC4)c3)nc(N3CCOCC3)n2)cn1` [Compound 314], the pIC50 on PI3 kinase alpha is more than 6.00. Besides, in assay [1], the negative-log EC50 (pEC50) is more than 4.60.

On to `CN1CCN(S(=O)(=O)c2cccc(Nc3cc(-c4cnc(N)cc4C(F)(F)F)nc(N4CCOCC4)n3)c2)CC1` [Compound 315], for which, at PI3 kinase alpha, the pIC50 was more than 6.00. Besides, the pEC50 in assay [1] was more than 5.00.

In the case of `Nc1cc(C(F)(F)F)c(-c2cc(Nc3cccc(S(=O)(=O)N4CCOCC4)c3)nc(N3CCOCC3)n2)cn1` [Compound 316], the pIC50 on PI3 kinase alpha was more than 6.00. For the same compound, the pEC50 in assay [1] was more than 5.00.

In the case of `N#Cc1cc(N)ncc1-c1cc(-c2cnc(N)cc2C#N)nc(N2CCOCC2)n1` [Compound 317], the negative-log IC50 (pIC50) at PI3 kinase alpha was more than 6.00. The pEC50 in assay [1] is more than 5.00.

Take `Nc1cc(C(F)(F)F)c(-c2cc(Nc3cccc(S(=O)(=O)CCO)c3)nc(N3CCOCC3)n2)cn1` [Compound 318]: on PI3 kinase alpha, the pIC50 was more than 6.00. Further, the pEC50 in assay [1] was more than 5.00.

Regarding `NC(=O)C1CN(c2cc(-c3cnc(N)cc3C(F)(F)F)nc(N3CCOCC3)n2)CCO1` (stereo not drawn) [Compound 320], on PI3 kinase alpha, the pIC50 was more than 6.00. The compound further showed a pEC50 in assay [1] of more than 5.00.

For the compound `Nc1ncc(-c2cc(NC3CCOCC3)nc(N3CCOCC3)n2)c(C(F)(F)F)n1` [Compound 321], the pIC50 on PI3 kinase alpha is more than 6.00. The compound also showed a pEC50 in assay [1] of more than 5.00.

For `Nc1cc(C(F)(F)F)c(-c2cc(NC3CCOCC3)nc(N3CCOCC3)n2)cn1` [Compound 322], the pIC50 at PI3 kinase alpha is more than 6.00. The compound further had a pEC50 in assay [1] of more than 4.60.

In the case of `Nc1cc(C(F)(F)F)c(-c2cc(N3CCC(O)CC3)nc(N3CCOCC3)n2)cn1` [Compound 323], the pIC50 at PI3 kinase alpha is more than 6.00. The pEC50 in assay [1] is more than 4.60.

On to `Nc1cc(C(F)(F)F)c(-c2cc(N3CCC(=O)CC3)nc(N3CCOCC3)n2)cn1` [Compound 324], for which, at PI3 kinase alpha, the pIC50 is more than 6.00. In assay [1], this compound had a pEC50 of more than 5.00.

In the case of `Nc1cc(C(F)(F)F)c(-c2cc(N3CCOC(C(=O)N4CCOCC4)C3)nc(N3CCOCC3)n2)cn1` (stereo not drawn) [Compound 325], the pIC50 on PI3 kinase alpha was more than 6.00. The compound also showed a pEC50 in assay [1] of more than 4.60.
